pIC50: −log10 of the molar value. Where two headings read alike, the source gives them in different places.
Test system: HCC 1806 cells
Assay: Cell proliferation inhibitory effect on human breast cancer cell line (crystal violet, 72 hours)
Format: cell-based
Conditions: read-out: Cell growth suppression IC50
Protocol: Human derived breast cancer cell line HCC 1806 cells were daily passaged at a cell density not exceeding 80% in ATCC recommended Roswell Park Memorial Institute medium (RPMI-1640) containing 10% fetal bovine serum (FBS). In order to start the test of cell proliferation inhibitory activity, HCC 1806 cells were suspended in the above medium, after seeing at 180 μL in each well of a 96-well flat bottom plate so that the number of cells per well was 2,000, the cells were cultured at 37° C. for 1 day in an incubator containing 5% carbon dioxide gas. On the next day, the test compound was dissolved in DMSO, and 20 μL of a drug additive solution diluted serially with distilled water to 10 times of the final concentration was added to each well of the culture plate of the cells, and the cells were cultured at 37° C. for 72 hours in an incubator containing 5% carbon dioxide gas. After culturing for 72 hours, 20 μL of glutaraldehyde was added to each well and allowed to stand for 30 minutes, then the plate was washed 10 times with water and was dried. 100 μL of a stain solution (0.05% crystal violet in a 20% methanol solution) was added to each well and allowed to stand for 30 minutes, then the plate was washed 10 times with water and was dried. 100 μL of an extract solution (0.1 N NaH2PO4: 100% ethanol=1:1) was added to each well and mixed, and the mixture was measured at a wavelength of 540 nm using a plate reader (MTP-450 manufactured by Corona Electric Co., Ltd.). The growth inhibition rate was calculated from the following formula, and the concentration (IC50 (μM)) of a test compound inhibiting 50% was determined. Growth inhibition rate (%)={(C−B)−(T−B)}/(C−B)×100
T: Absorbance of well to which test compound was added
C: Absorbance of wells to which no test compound was added
B: Absorbance of wells to which no cell suspension was added

Row | SMILES | pIC50 (Homo sapiens, HCC1806, 72 h) | pIC50
1 | Cc1ccc(F)c([C@@H](C)[C@H](NS(=O)(=O)c2ccc(Cl)c3c2OCCC3(O)C(F)(F)F)c2n[nH]c(=O)o2)c1C (single isomer, unassigned) [Example 220A] | 6.43 | –
2 | Cc1c(Br)ccc(F)c1[C@@H](C)[C@H](NS(=O)(=O)c1ccc(Cl)cc1C(N)=O)c1n[nH]c(=O)o1 [Example 30, 2-(N-((1S,2R)-2-(3-bromo-6-fluoro-2-methylphenyl)-1-(5-oxo-4,5-dihydro-1,3,4-oxadiazol-2-yl)propyl)sulfamoyl)-5-chlorobenzamide] | 6.10 | –
3 | CCc1ccc(S(=O)(=O)N[C@H](c2n[nH]c(=O)o2)[C@H](C)c2c(F)ccc(C)c2C)c(C(N)=O)c1 [Example 18, 5-Ethyl-2-(N-((1S,2R)-2-(6-fluoro-2,3-dimethylphenyl)-1-(5-oxo-4,5-dihydro-1,3,4-oxadiazol-2-yl)propyl)sulfamoyl)benzamide] | 6.24 | –
4 | Cc1ccc(F)c([C@@H](C)[C@H](NS(=O)(=O)c2cccc3c2OCCC3(O)C(F)(F)F)c2n[nH]c(=O)o2)c1C (stereo partly drawn) [Example 211A, N-((1S,2R)-2-(6-fluoro-2,3-dimethylphenyl)-1-(5-oxo-4,5-dihydro-1,3,4-oxadiazol-2-yl)propyl)-4-hydroxy-4-(tifluoromethyl)chroman-8-sulfonamide] | 6.07 | –
5 | C[C@H](c1c(F)ccc2ccccc12)[C@H](NS(=O)(=O)c1ccc(Br)cc1C(N)=O)c1n[nH]c(=O)o1 [Example 15, 5-bromo-2-(N-((1S,2R)-2-(2-fluoronaphthalen-1-yl)-1-(5-oxo-4,5-dihydro-1,3,4-oxadiazol-2-yl)propyl)sulfamoyl)benzamide] | 6.40 | –
6 | Cc1ccc(F)c([C@@H](C)[C@H](NS(=O)(=O)c2cc(C(C)(C)O)c(F)cc2C(N)=O)c2n[nH]c(=O)o2)c1C [Example 196, 5-fluoro-2-(N-((1S,2R)-2-(6-fluoro-2,3-dimethylphenyl)-1-(5-oxo-4,5-dihydro-1,3,4-oxadiazol-2-yl)propyl)sulfamoyl)-4-(2-hydroxypropan-2-yl)benzamide] | 6.49 | –
7 | [2H]C([2H])([2H])C1(O)CCOc2c(S(=O)(=O)N[C@H](c3n[nH]c(=O)o3)[C@H](C)c3c(F)ccc(Br)c3C)ccc(Cl)c21 (single isomer, unassigned) [Example 226A] | – | 7.10
8 | C[C@H](c1c(F)ccc2ccccc12)[C@H](NS(=O)(=O)c1ccc(Cl)cc1C(N)=O)c1n[nH]c(=O)o1 [Example 6, 5-chloro-2-(N-((1S,2R)-2-(2-fluoronaphthalen-1-yl)-1-(5-oxo-4,5-dihydro-1,3,4-oxadiazol-2-yl)propyl)sulfamoyl)benzamide] | 6.54 | –
9 | CCc1ccc(F)c([C@@H](C)[C@H](NS(=O)(=O)c2ccc(Br)cc2C(N)=O)c2n[nH]c(=O)o2)c1C [Example 96, 5-bromo-2-(N-((1S,2R)-2-(3-ethyl-6-fluoro-2-methylphenyl)-1-(5-oxo-4,5-dihydro-1,3,4-oxadiazol-2-yl)propyl)sulfamoyl)benzamide] | 6.02 | –
10 | Cc1ccc(F)c([C@@H](C)[C@H](NS(=O)(=O)c2ccc(C(F)(F)F)cc2C(N)=O)c2n[nH]c(=O)o2)c1C [Example 41, 2-(N-((1S,2R)-2-(6-fluoro-2,3-dimethylphenyl)-1-(5-oxo-4,5 dihydro-1,3,4-oxadiazol-2-yl)propyl)sulfamoyl)-5-(trifluoromethyl)benzamide] | 6.40 | –
11 | Cc1ccc(F)c([C@@H](C)[C@H](NS(=O)(=O)c2ccc(Cl)c3c2OCCC3(O)C(F)(F)F)c2n[nH]c(=O)o2)c1C (single isomer, unassigned) [Example 220B] | – | 6.30
12 | CCc1ccc(F)c([C@@H](C)[C@H](NS(=O)(=O)c2ccc(Cl)c(C(C)O)c2OC)c2n[nH]c(=O)o2)c1C (stereo partly drawn) [Example 206A, 4-chloro-N-((1S,2R)-2-(3-ethyl-6-fluoro-2-methylphenyl)-1-(5-oxo-4,5-dihydro-1,3,4-oxadiazol-2-yl)propyl)-3-(1-hydroxyethyl)-2-methoxybenzenesulfonamide] | 6.24 | –
13 | CC(=O)OC1(C(F)(F)F)CCOc2c(S(=O)(=O)N[C@H](c3n[nH]c(=O)o3)[C@H](C)c3c(F)ccc(C)c3C)ccc(Cl)c21 (stereo partly drawn) [Example 123, 5-chloro-8-(N-((1S,2R)-2-(6-fluoro-2,3-dimethylphenyl)-1-(5-oxo-4,5-dihydro-1,3,4-oxadiazol-2-yl)propyl)sulfamoyl)-4-(trifluoromethyl)chroman-4-yl acetate] | 6.77 | –
14 | Cc1ccc(F)c([C@@H](C)[C@H](NS(=O)(=O)c2ccc(Cl)c3c2OCC(=O)N3CC(F)F)c2n[nH]c(=O)o2)c1C [Example 101, 5-chloro-4-(2,2-difluoroethyl)-N-((1S,2R)-2-(6-fluoro-2,3-dimethylphenyl)-1-(5-oxo-4,5-dihydro-1,3,4-oxadiazol-2-yl)propyl)-3-oxo-3,4-dihydro-2H-benzo[b][1,4]oxazine-8-sulfonamide] | 6.09 | –

Second part, the molecule after the results:

Row | pIC50 (Homo sapiens, HCC1806, 72 h) | pIC50 | SMILES
15 | 6.06 | – | COc1cc(Cl)ccc1S(=O)(=O)N[C@H](c1n[nH]c(=O)o1)[C@H](C)c1c(F)ccc(-c2cnn(C3CCC3)c2)c1C [Example 312, 4-chloro-N-((1S,2R)-2-(3-(1-cyclobutyl-1H-pyrazol-4-yl)-6-fluoro-2-methylphenyl)-1-(5-oxo-4,5-dihydro-1,3,4-oxadiazol-2-yl)propyl)-2-methoxybenzenesulfonamide]
16 | 6.09 | – | Cc1ccc(F)c([C@@H](C)[C@H](NS(=O)(=O)c2ccc(Cl)c3c2OCC(=O)N3CCO)c2n[nH]c(=O)o2)c1C [Example 273, 5-chloro-N-((1S,2R)-2-(6-fluoro-2,3-dimethylphenyl)-1-(5-oxo-4,5-dihydro-1,3,4-oxadiazol-2-yl)propyl)-4-(2-hydroxyethyl)-3-oxo-3,4-dihydro-2H-benzo[b][1,4]oxazine-8-sulfonamide]
17 | 6.51 | – | Cc1c(Cl)ccc(F)c1[C@@H](C)[C@H](NS(=O)(=O)c1ccc(F)c2c1OCCC2(C)O)c1n[nH]c(=O)o1 (single isomer, unassigned) [Example 229A]
18 | – | 6.52 | [2H]C([2H])([2H])C1(O)CCOc2c(S(=O)(=O)N[C@H](c3n[nH]c(=O)o3)[C@H](C)c3c(F)ccc(Br)c3C)ccc(Cl)c21 (single isomer, unassigned) [Example 226B]
19 | 6.24 | – | Cc1ccc(F)c([C@@H](C)[C@H](NS(=O)(=O)c2c(F)cc(Cl)cc2C(N)=O)c2n[nH]c(=O)o2)c1C [Example 258, 5-chloro-3-fluoro-2-(N-((1S,2R)-2-(6-fluoro-2,3-dimethylphenyl)-1-(5-oxo-4,5-dihydro-1,3,4-oxadiazol-2-yl)propyl)sulfamoyl)benzamide]
20 | 6.00 | – | COc1cc(Cl)ccc1S(=O)(=O)N[C@H](c1n[nH]c(=O)o1)[C@H](C)c1c(F)ccc(-c2cn[nH]c2)c1C [Example 303, 4-chloro-N-((1S,2R)-2-(6-fluoro-2-methyl-3-(1H-pyrazol-4-yl)phenyl)-1-(5-oxo-4,5-dihydro-1,3,4-oxadiazol-2-yl)propyl)-2-methoxybenzenesulfonamide]
21 | 6.41 | – | COc1c(S(=O)(=O)N[C@H](c2n[nH]c(=O)o2)[C@H](C)c2c(F)ccc(C)c2C)ccc(Cl)c1C(C)=O [Example 294, 3-acetyl-4-chloro-N-((1S,2R)-2-(6-fluoro-2,3-dimethylphenyl)-1-(5-oxo-4,5-dihydro-1,3,4-oxadiazol-2-yl)propyl)-2-methoxybenzenesulfonamide]

From US10889555B2, “Sulfonamide compound or salt thereof” (Taiho Pharmaceutical Co., Ltd., priority 2016, dated 2021)
